Assay [1] addresses T1, endogenous NrdEF (BsNrdEF) (Bacillus subtilis, UniProt P50620).
T1 sequence (P50620 1-700): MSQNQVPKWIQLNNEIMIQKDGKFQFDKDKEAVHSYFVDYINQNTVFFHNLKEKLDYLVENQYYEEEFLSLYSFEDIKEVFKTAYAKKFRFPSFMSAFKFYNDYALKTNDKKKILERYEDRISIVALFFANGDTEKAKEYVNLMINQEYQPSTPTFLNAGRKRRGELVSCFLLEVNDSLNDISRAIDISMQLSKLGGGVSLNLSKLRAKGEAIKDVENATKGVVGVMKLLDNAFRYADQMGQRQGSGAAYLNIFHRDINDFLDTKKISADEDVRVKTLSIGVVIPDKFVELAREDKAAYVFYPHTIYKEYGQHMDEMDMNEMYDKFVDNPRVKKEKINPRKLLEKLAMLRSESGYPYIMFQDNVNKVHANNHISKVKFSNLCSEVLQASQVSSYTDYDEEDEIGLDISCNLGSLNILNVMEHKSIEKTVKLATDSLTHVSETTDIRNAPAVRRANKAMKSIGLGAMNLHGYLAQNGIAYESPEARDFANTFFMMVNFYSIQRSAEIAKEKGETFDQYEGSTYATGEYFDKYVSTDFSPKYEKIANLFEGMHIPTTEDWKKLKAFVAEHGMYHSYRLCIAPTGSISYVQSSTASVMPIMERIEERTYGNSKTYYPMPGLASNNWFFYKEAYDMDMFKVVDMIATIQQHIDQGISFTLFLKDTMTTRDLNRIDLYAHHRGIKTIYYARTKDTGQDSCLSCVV
T1 sequence (P50621 1-329 partner): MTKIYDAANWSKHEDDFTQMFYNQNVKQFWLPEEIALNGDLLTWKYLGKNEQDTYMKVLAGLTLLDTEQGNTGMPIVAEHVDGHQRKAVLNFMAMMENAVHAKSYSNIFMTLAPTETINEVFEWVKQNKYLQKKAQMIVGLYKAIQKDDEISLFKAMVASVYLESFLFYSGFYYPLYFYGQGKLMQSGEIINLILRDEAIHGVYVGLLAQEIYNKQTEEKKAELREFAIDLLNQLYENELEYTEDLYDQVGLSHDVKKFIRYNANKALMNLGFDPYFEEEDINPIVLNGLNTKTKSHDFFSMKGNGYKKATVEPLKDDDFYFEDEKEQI
As to the kind of experiment: HClO4 release and high-resolution LC/ESI-MS of copurified nucleotide. Format: binding. The note with it: stoichiometry, not affinity; native copurified ligand; protein ~80% pure.

Assay [2] deals with T2, B. subtilis class Ib RNR (NrdE with Mn(III)2-Y• NrdF) (Bacillus subtilis, UniProt P50620).
T2 sequence (P50620 1-700): T1 sequence (P50620 1-700)
T2 sequence (P50621 1-329 partner): T1 sequence (P50621 1-329 partner)
As to the kind of experiment: spectrophotometric RNR activity assay, dATP titration. Format: biochemical. The note with it: read-out: % activity remaining at 25 μM.

Assay [3] concerns the target T3, Bacillus subtilis NrdE isolated from B. subtilis as the NrdE⋅NrdF (NrdEF) complex (Bacillus subtilis, UniProt P50620 1-700).
T3 sequence (looked up): T1 sequence (P50620 1-700)
As to the kind of experiment: co-purification from B. subtilis.

As usually defined, the remaining activity is the share of the control activity or signal that is left under treatment. Usually stoichiometry N stands for the number of molecules, sites or subunits per partner or assembly.

For `Nc1ncnc2c1ncn2[C@H]1C[C@H](O)[C@@H](COP(=O)(O)O)O1` [dAMP], in assay [1], the dAMP/α was found to be 0.3 per α.
As for `Nc1ncnc2c1ncn2[C@H]1C[C@H](O)[C@@H](COP(=O)(O)OP(=O)(O)OP(=O)(O)O)O1` [dATP], in assay [2], the remaining activity at 25 µM is about 15%.

B1: Bacillus subtilis NrdF (Mn-loaded) isolated from B. subtilis as the NrdE⋅NrdF (NrdEF) complex (enzyme, UniProt P50621 1-329, looked up)
chain: T1 sequence (P50621 1-329 partner)
As for B1, the “stoichiometry N” value in assay [3] is about 1.

The values above are taken from paper PMC5960316 (Proceedings of the National Academy of Sciences of the …, 2018).
